Laboratory results: patent publication US20240018153A1, “BENZENESULFONAMIDE DERIVATIVES AND USES THEREOF” (2692372 ONTARIO, INC., priority 2020, published 2024)

What was measured:
BTK = BTK (Homo sapiens (Human), UniProt Q06187); assay: Jump dilution experiment, BTK; format: biochemical; conditions: 1.5-h incubation, 142 nM BTK, 10×IC50 compound, 100-fold dilution
Description: Sample containing only DMSO vehicle was used as a positive (full activity) control while sample with no enzyme was used as a negative (zero activity) control. After the preincubation, the mixture was diluted 100-fold into a reaction mixture containing 1 uM biotinylated substrate and 28 uM ATP and the reaction was allowed to proceed for various time points (2, 5, 10, 15, 20, 30, 45 and 60 min), at which the reaction was terminated by adding 1 ul of 0.5 M EDTA. 62.5 nM SA-XL665 and 100-fold diluted europium labelled antibody (Eu-Ab), diluted in 1× detection buffer, was added as detection mixture. After 60 min of incubation, the fluorescence emission was measured at 620 nm and 665 nm. The ratio of Em 665 nm to Em 620 nm was proportional to the amount of substrate phosphorylated by the kinase.

EGFR = EGFR (Homo sapiens (Human), UniProt P00533); assay: Time-dependent inhibition of EGFR (HTRF); format: biochemical; conditions: pre-incubation 0-60 min; for Time-dependent inhibition of EGFR: product formation versus pre-incubation time: mono-exponential decay fit
Description: For the time-dependent inhibition experiments, the activity of EGFR kinase was monitored using a HTRF® KinEASE-TK kit from Cisbio (62TK0PEC) as described above. Six compounds showing higher potency during dose response analysis against EGFR, were further evaluated for their change in inhibitory potency over time. Ibrutinib was used as a positive control. The selected compounds were pre incubated with the kinase at 11 different concentrations, ranging from […] to 25 uM final compound concentrations. The pre incubation times were 0, 2, 5, 10, 15, 30, 45 and 60 min. After the preincubation, the reaction was initiated by adding biotinylated substrate and ATP and the reaction was allowed to proceed for 45 min. […] The reaction was terminated by adding 31.25 nM SA-XL665 and 100 fold diluted europium labelled antibody (Eu-Ab), diluted in 1× detection buffer that contained EDTA. After 60 min of incubation, the fluorescence emission was measured at 620 nm and 665 nm. The ratio of Em 665 nm to Em 620 nm was proportional to the amount of substrate phosphorylated by the kinase. Product formation vs pre-incubation time data were fitted to a one phase exponential decay equation using GraphPad Prism. The same product formation vs inhibitor concentration data were also fitted to a log(antagonist) vs. response—Variable slope equation in GraphPad Prism to provide IC50 values at different pre incubation times.

[1] = target: His-tagged BTK protein (SEQ ID NO: 1) (Homo sapiens (Human), UniProt Q06187); assay: Intact mass analysis (LC-MS/MS) of covalent modification; format: binding; conditions: His-tagged BTK (unmodified 32,650 Da) incubated with compound
Description: The covalent modification of the proteins with the compounds were evaluated using intact mass analysis by liquid chromatography-mass spectrometry instrument (LC-MS/MS).
The reaction solution (20 μL) was prepared in 96-well plate and contained the protein (2 μM), the compound (100 μM), HEPES buffer (20 mM, pH 8), 2% DMSO, 2% glycerol, and 150 mM NaCl. The reaction was allowed to proceed for 24 h at 25° C. The reaction solution (1 μL) was injected into the LC/MS/MS without any further sample preparation.
The LC-MS/MS instrument comprises of a Waters G2-XS quadrupole-time of flight (QTof) mass spectrometer and a Waters Acuity I-class Ultra-High Performance Liquid Chromatography (UPLC) system. The I-class UPLC system includes a binary solvent manager (BSM), and a Acquity sample manager (SM). The mobile phase consisted of: A) 0.1% (v/v) formic acid in MilliQ water; B) 0.1% (v/v) formic acid acetonitrile. Gradients were run over 5 min and proceeded as follows: A:B, 85:15, 0.0-0.7 min, 85:15→15:85, 0.7-1.5 min, 10:90, 1.5-4 min, 10:90→85:15, 4-4.5 min, 85:15, 4.5-5 min. The analytical column was a Waters BEH C4 column 1.7 μm (50×1 mm) column with pore sizes of […]. The TOF MS data was collected in positive ion mode (m/z of 400-2000 Da) using MassLynx software (Waters).
The spectral deconvolution was performed using UNIFI software (Waters). The added mass of the protein upon covalent modification to cysteine residues were specified. Multiple modification of up to 8 cysteine was allowed. All the adducts with signal intensities of <2% of the base peak were ignored. The % modification was calculated as the adduct signal intensity over the total intensities of the protein peaks and the adducts.

Sequence of EGFR (P00533 25-1210): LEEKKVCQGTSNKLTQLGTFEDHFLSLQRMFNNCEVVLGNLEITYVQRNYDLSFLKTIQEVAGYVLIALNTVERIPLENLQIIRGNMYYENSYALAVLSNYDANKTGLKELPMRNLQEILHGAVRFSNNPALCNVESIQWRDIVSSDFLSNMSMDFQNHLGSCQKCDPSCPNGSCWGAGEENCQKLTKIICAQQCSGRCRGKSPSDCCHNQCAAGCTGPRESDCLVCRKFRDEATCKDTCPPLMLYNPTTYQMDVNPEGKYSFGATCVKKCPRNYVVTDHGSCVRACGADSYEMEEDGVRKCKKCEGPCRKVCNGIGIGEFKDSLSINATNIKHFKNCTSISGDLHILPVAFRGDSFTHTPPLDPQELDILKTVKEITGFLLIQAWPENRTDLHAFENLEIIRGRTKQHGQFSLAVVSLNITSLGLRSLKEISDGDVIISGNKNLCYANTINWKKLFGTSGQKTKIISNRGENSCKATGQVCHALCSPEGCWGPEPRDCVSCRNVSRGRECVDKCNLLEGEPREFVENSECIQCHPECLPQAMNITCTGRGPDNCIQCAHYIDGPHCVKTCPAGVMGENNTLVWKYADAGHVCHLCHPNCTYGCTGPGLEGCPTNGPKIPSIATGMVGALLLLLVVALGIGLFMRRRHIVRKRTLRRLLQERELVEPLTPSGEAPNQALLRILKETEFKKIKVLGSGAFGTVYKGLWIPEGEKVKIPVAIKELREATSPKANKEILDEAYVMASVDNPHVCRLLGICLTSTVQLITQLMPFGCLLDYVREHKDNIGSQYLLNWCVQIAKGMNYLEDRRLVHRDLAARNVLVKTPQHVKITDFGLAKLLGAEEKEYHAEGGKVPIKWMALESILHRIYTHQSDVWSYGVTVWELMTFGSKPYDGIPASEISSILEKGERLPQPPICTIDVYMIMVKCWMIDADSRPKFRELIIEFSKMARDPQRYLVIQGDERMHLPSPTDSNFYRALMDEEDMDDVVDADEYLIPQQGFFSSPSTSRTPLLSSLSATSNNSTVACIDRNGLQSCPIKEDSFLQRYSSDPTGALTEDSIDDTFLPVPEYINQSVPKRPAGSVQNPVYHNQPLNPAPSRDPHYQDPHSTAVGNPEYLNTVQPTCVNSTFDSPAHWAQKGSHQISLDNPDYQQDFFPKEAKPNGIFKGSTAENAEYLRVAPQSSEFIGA
Sequence of BTK (Q06187 whole entry): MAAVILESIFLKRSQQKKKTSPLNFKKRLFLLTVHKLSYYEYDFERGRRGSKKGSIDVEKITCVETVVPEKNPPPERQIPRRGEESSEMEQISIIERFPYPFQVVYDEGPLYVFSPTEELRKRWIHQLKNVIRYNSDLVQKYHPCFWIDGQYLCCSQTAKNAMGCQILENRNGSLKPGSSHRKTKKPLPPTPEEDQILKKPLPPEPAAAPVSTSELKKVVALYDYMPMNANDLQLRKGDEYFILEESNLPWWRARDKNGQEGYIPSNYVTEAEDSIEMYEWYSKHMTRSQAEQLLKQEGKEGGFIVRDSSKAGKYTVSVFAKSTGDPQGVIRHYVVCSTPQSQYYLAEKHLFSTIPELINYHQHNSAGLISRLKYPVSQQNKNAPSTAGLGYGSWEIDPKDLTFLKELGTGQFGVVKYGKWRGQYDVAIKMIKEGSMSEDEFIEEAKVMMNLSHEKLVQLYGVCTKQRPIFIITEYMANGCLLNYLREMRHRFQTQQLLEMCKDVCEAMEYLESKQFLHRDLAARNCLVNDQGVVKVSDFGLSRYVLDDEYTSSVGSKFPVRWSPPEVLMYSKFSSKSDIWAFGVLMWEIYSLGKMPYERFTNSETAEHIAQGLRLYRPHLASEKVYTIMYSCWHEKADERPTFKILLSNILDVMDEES
Sequence of His-tagged BTK protein (SEQ ID NO: 1) (Q06187 other isoform, or with tags, fused parts or gaps): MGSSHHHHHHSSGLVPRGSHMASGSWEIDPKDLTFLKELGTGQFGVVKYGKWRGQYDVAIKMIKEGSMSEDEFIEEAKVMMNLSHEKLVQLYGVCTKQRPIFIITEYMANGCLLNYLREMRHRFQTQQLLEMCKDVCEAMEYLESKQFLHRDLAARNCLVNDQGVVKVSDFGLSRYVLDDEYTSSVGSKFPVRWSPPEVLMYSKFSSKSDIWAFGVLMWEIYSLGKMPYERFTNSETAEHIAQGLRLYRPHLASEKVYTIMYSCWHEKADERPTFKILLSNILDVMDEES

| SMILES | residual activity of BTK after jump dilution, relative to enzyme incubated with DMSO alone (BTK) | Time-dependent inhibition of EGFR: product formation versus pre-incubation time (EGFR) | Time-dependent inhibition of EGFR: IC50 values versus pre-incubation time (EGFR) | covalent adduct mass (intact mass analysis, modification by one molecule) [1] |
| --- | --- | --- | --- | --- |
| Nc1ncnc2c1c(-c1ccc(Oc3ccccc3)cc1)nn2CCCNC(=O)c1c(F)c(F)c(F)c(F)c1S(N)(=O)=O [Compound I-34, N-(3-(4-amino-3-(4-phenoxyphenyl)-1H-pyrazolo[3,4-d]pyrimidin-1-yl)propyl)-2,3,4,5-tetrafluoro-6-sulfamoylbenzamide] | less than 1% | – | – | – |
| CN(C)S(=O)(=O)c1c(F)c(F)c(F)c(F)c1C(=O)NCCn1nc(-c2ccc(Oc3ccccc3)cc2)c2c(N)ncnc21 [Compound I-40, N-(2-(4-amino-3-(4-phenoxyphenyl)-1H-pyrazolo[3,4-d]pyrimidin-1-yl)ethyl)-2-(N,N-dimethylsulfamoyl)-3,4,5,6-tetrafluorobenzamide] | less than 1% | – | – | – |
| CN(CCn1nc(-c2ccc(Oc3ccccc3)cc2)c2c(N)ncnc21)C(=O)c1c(F)c(F)c(F)c(F)c1S(N)(=O)=O [Compound I-33, N-(2-(4-amino-3-(4-phenoxyphenyl)-1H-pyrazolo[3,4-d]pyrimidin-1-yl)ethyl)-2,3,4,5-tetrafluoro-N-methyl-6-sulfamoylbenzamide] | less than 1% | – | – | – |
| CS(=O)(=O)c1c(F)c(F)c(F)c(F)c1Nc1cc2c(Nc3ccc(F)c(Cl)c3)ncnc2cc1O[C@H]1CCOC1 [Compound I-2, (S)—N^4-(3-chloro-4-fluorophenyl)-N^6-(2,3,4,5-tetrafluoro-6-(methylsulfonyl)phenyl)-7-((tetrahydrofuran-3-yl)oxy)quinazoline-4,6-diamine] | – | concentration-dependent first order loss of enzyme activity | decrease as pre-incubation times increase | – |
| C[S+]([O-])c1c(F)c(F)c(F)c(F)c1Nc1cc2c(Nc3ccc(F)c(Cl)c3)ncnc2cc1O[C@H]1CCOC1 (stereo partly drawn) [Compound I-4, N^4-(3-chloro-4-fluorophenyl)-N^6-(2,3,4,5-tetrafluoro-6-(methylsulfinyl)phenyl)-7-(((S)-tetrahydrofuran-3-yl)oxy)quinazoline-4,6-diamine] | – | concentration-dependent first order loss of enzyme activity | decrease as pre-incubation times increase | – |
| Nc1ncnc2c1c(-c1ccc(Oc3ccccc3)cc1)nn2[C@@H]1CCN(S(=O)(=O)c2c(F)c(F)c(F)c(F)c2OCF)C1 [Compound I-24, (R)-3-(4-phenoxyphenyl)-1-(1-((2,3,4,5-tetrafluoro-6-(fluoromethoxy)phenyl)sulfonyl)pyrrolidin-3-yl)-1H-pyrazolo[3,4-d]pyrimidin-4-amine] | – | – | – | 33,263 Da |
| CS(=O)(=O)c1c(F)c(F)c(F)c(F)c1C(=O)NCCn1nc(-c2ccc(Oc3ccccc3)cc2)c2c(N)ncnc21 [Compound I-38, N-(2-(4-amino-3-(4-phenoxyphenyl)-1H-pyrazolo[3,4-d]pyrimidin-1-yl)ethyl)-2,3,4,5-tetrafluoro-6-(methylsulfonyl)benzamide] | less than 1% | – | – | – |
| C[S@+]([O-])c1c(F)c(F)c(F)c(F)c1C(=O)N1CC(n2nc(-c3ccc(Oc4ccccc4)cc3)c3c(N)ncnc32)C1 (racemic) [Compound I-37, (3-(4-amino-3-(4-phenoxyphenyl)-1H-pyrazolo[3,4-d]pyrimidin-1-yl)azetidin-1-yl)(2,3,4,5-tetrafluoro-6-(methylsulfinyl)phenyl)methanone] | less than 1% | concentration-dependent first order loss of enzyme activity | decrease as pre-incubation times increase | – |
| C[S+]([O-])c1c(F)c(F)c(F)c(F)c1C(=O)Nc1cc2c(Nc3ccc(F)c(Cl)c3)ncnc2cc1OC1CCOC1 (centres unmarked) [Compound I-3] | – | concentration-dependent first order loss of enzyme activity | decrease as pre-incubation times increase | – |
